Data: patent publication US8404708B2, “Dual NK1/NK3 receptor antagonists” (Hoffmann-La Roche Inc., priority 2004, dated 2013)

Columns and labels:
[1] = molecular target: T1, Recombinant human NK3 (hNK3) receptor (Homo sapiens, UniProt P29371); assay: NK3 receptor binding, [3H]SR142801 displacement, membrane preparations; settings: second value of the cell pKi NK1/NK3; hNK3 receptor, [3H]SR142801
T1 construct: expressed in transfected cells
T1 sequence (P29371 1-465): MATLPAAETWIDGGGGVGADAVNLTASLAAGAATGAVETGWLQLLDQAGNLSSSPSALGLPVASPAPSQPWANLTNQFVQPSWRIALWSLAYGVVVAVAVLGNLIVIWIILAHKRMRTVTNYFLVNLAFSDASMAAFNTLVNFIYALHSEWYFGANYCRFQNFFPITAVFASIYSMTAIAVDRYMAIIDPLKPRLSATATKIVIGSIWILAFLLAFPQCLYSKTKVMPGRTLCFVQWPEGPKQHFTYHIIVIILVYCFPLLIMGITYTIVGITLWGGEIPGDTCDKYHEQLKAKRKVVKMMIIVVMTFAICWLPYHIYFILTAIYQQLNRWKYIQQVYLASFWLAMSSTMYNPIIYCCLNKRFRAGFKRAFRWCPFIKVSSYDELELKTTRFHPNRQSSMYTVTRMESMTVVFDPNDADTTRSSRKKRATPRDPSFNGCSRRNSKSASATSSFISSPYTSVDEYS
How it was run: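 hNK3 membranes (~2.5 μg/well) incubated 90 min at room temperature in 50 mM Tris-HCl pH 7.4 with 0.1% BSA, 4 mM MnCl2, 1 μM phosphoramidon. Nonspecific binding defined with 10 μM SB222200; bound [3H]SR142801 separated by filtration on PEI-soaked GF/C filters and counted by scintillation.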

human NK1 receptor = human NK1 receptor (Homo sapiens, UniProt P25103); assay: NK1 receptor binding, [3H]substance P displacement, CHO cell membranes; settings: first value of the cell pKi NK1/NK3; human NK1 receptor, [3H]substance P
Chain of human NK1 receptor (P25103 whole entry): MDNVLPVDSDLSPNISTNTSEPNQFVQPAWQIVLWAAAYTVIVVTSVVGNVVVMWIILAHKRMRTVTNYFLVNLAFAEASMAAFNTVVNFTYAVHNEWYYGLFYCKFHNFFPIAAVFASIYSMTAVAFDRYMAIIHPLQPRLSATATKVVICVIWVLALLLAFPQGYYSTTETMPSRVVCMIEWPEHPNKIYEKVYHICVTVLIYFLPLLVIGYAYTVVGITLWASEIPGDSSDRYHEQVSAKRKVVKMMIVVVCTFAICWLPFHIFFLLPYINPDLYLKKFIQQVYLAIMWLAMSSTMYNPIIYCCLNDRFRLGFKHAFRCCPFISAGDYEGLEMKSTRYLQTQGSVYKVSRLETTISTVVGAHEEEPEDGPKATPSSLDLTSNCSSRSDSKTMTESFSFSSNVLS

| Ki [1] [nM] | Ki (human NK1 receptor) [nM] | SMILES |
| --- | --- | --- |
| 14.8 | 4.27 | CN(C(=O)C(C)(C)c1cc(C(F)(F)F)cc(C(F)(F)F)c1)c1cnc(N2CCC[C@@H]2CO)cc1-c1ccc(Cl)cc1Cl [Example 94, (R)-2-(3,5-Bis-trifluoromethyl-phenyl)-N-[4-(2,4-dichloro-phenyl)-6-(2-hydroxymethyl-pyrrolidin-1-yl)-pyridin-3-yl]-N-methyl-isobutyramide] |
| 9.33 | 3.8 | CN(C(=O)C(C)(C)c1cc(C(F)(F)F)cc(C(F)(F)F)c1)c1cnc(N2CCC[C@@H]2CO)cc1-c1ccc(Cl)c(Cl)c1 [Example 95, (R)-2-(3,5-Bis-trifluoromethyl-phenyl)-N-[4-(3,4-dichloro-phenyl)-6-(2-hydroxymethyl-pyrrolidin-1-yl)-pyridin-3-yl]-N-methyl-isobutyramide] |
| 3.47 | 0.692 | CN(C(=O)C(C)(C)c1cc(C(F)(F)F)cc(C(F)(F)F)c1)c1cnc(N2CC(O)C2)cc1-c1ccccc1Cl [Example 98, 2-(3,5-Bis-trifluoromethyl-phenyl)-N-[4-(2-chloro-phenyl)-6-(3-hydroxy-azetidin-1-yl)-pyridin-3-yl]-N-methyl-isobutyramide] |
| 15.8 | 1.66 | Cc1cc(F)ccc1-c1cc(N2CC[C@H](N)C2)ncc1N(C)C(=O)C(C)(C)c1cc(C(F)(F)F)cc(C(F)(F)F)c1 [Example 103, (S)-N-[6-(3-Amino-pyrrolidin-1-yl)-4-(4-fluoro-2-methyl-phenyl)-pyridin-3-yl]-2-(3,5-bis-trifluoromethyl-phenyl)-N-methyl-isobutyramide] |
| 13.5 | 2.04 | Cc1cc(F)ccc1-c1cc(N2CC[C@H](O)C2)ncc1N(C)C(=O)C(C)(C)c1cc(C(F)(F)F)cc(C(F)(F)F)c1 [Example 109, (S)-2-(3,5-Bis-trifluoromethyl-phenyl)-N-[4-(4-fluoro-2-methyl-phenyl)-6-(3-hydroxy-pyrrolidin-1-yl)-pyridin-3-yl]-N-methyl-isobutyramide] |
| 5.5 | 0.562 | CN(C(=O)C(C)(C)c1cc(C(F)(F)F)cc(C(F)(F)F)c1)c1cnc(N2CCC(N)CC2)cc1-c1ccccc1Cl [Example 112, N-[4-Amino-4′-(2-chloro-phenyl)-3,4,5,6-tetrahydro-2H-[1,2′]bipyridinyl-5′-yl]-2-(3,5-bis-trifluoromethyl-phenyl)-N-methyl-isobutyramide] |
| 3.47 | 5.75 | CN(C(=O)C(C)(C)c1cc(C(F)(F)F)cc(C(F)(F)F)c1)c1cnc(N2CCC(NS(C)(=O)=O)CC2)cc1-c1ccccc1Cl [Example 113, 2-(3,5-Bis-trifluoromethyl-phenyl)-N-[4′-(2-chloro-phenyl)-4-methanesulfonylamino-3,4,5,6-tetrahydro-2H-[1,2′]bipyridinyl-5′-yl]-N-methyl-isobutyramide] |
| 16.2 | 0.603 | CC(=O)NC1CCN(c2cc(-c3ccc(F)cc3C)c(N(C)C(=O)C(C)(C)c3cc(C(F)(F)F)cc(C(F)(F)F)c3)cn2)CC1 [Example 114, N-[4-Acetylamino-4′-(4-fluoro-2-methyl-phenyl)-3,4,5,6-tetrahydro-2H-[1,2′]bipyridinyl-5′-yl]-2-(3,5-bis-trifluoromethyl-phenyl)-N-methyl-isobutyramide] |

Continued, compound first:

| SMILES | Ki [1] [nM] | Ki (human NK1 receptor) [nM] |
| --- | --- | --- |
| CC(=O)N[C@H]1CCN(c2cc(-c3ccc(F)cc3C)c(N(C)C(=O)C(C)(C)c3cc(C(F)(F)F)cc(C(F)(F)F)c3)cn2)C1 [Example 99, (S)-N-[6-(3-Acetylamino-pyrrolidin-1-yl)-4-(4-fluoro-2-methyl-phenyl)-pyridin-3-yl]-2-(3,5-bis-trifluoromethyl-phenyl)-N-methyl-isobutyramide] | 55 | 0.813 |
| CC(=O)N[C@@H]1CCN(c2cc(-c3ccc(F)cc3C)c(N(C)C(=O)C(C)(C)c3cc(C(F)(F)F)cc(C(F)(F)F)c3)cn2)C1 [Example 100, (R)-N-[6-(3-Acetylamino-pyrrolidin-1-yl)-4-(4-fluoro-2-methyl-phenyl)-pyridin-3-yl]-2-(3,5-bis-trifluoromethyl-phenyl)-N-methyl-isobutyramide] | 20 | 1.82 |
| CC(=O)N(C)[C@@H]1CCN(c2cc(-c3ccc(F)cc3C)c(N(C)C(=O)C(C)(C)c3cc(C(F)(F)F)cc(C(F)(F)F)c3)cn2)C1 [Example 101, (R)-N-[6-[3-(Acetyl-methyl-amino)-pyrrolidin-1-yl]-4-(4-fluoro-2-methyl-phenyl)-pyridin-3-yl]-2-(3,5-bis-trifluoromethyl-phenyl)-N-methyl-isobutyramide] | 9.33 | 1.7 |
| CCN(C(C)=O)[C@@H]1CCN(c2cc(-c3ccc(F)cc3C)c(N(C)C(=O)C(C)(C)c3cc(C(F)(F)F)cc(C(F)(F)F)c3)cn2)C1 [Example 102, (R)-N-[6-[3-(Acetyl-ethyl-amino)-pyrrolidin-1-yl]-4-(4-fluoro-2-methyl-phenyl)-pyridin-3-yl]-2-(3,5-bis-trifluoromethyl-phenyl)-N-methyl-isobutyramide] | 13.2 | 1.95 |
| Cc1cc(F)ccc1-c1cc(N2CC[C@H](NS(C)(=O)=O)C2)ncc1N(C)C(=O)C(C)(C)c1cc(C(F)(F)F)cc(C(F)(F)F)c1 [Example 104, (S)-2-(3,5-Bis-trifluoromethyl-phenyl)-N-[4-(4-fluoro-2-methyl-phenyl)-6-(3-methanesulfonylamino-pyrrolidin-1-yl)-pyridin-3-yl]-N-methyl-isobutyramide] | 6.76 | 1.62 |
| Cc1cc(F)ccc1-c1cc(N2CC[C@H](N(C)S(C)(=O)=O)C2)ncc1N(C)C(=O)C(C)(C)c1cc(C(F)(F)F)cc(C(F)(F)F)c1 [Example 105, (S)-2-(3,5-Bis-trifluoromethyl-phenyl)-N-{4-(4-fluoro-2-methyl-phenyl)-6-[3-(methanesulfonyl-methyl-amino)-pyrrolidin-1-yl]-pyridin-3-yl}-N-methyl-isobutyramide] | 5.25 | 1.02 |
| CCN([C@H]1CCN(c2cc(-c3ccc(F)cc3C)c(N(C)C(=O)C(C)(C)c3cc(C(F)(F)F)cc(C(F)(F)F)c3)cn2)C1)S(C)(=O)=O [Example 106] | 4.68 | 0.589 |
| CC(=O)N(C)[C@H]1CCN(c2cc(-c3ccc(F)cc3C)c(N(C)C(=O)C(C)(C)c3cc(C(F)(F)F)cc(C(F)(F)F)c3)cn2)C1 [Example 107, (S)-N-[6-[3-(Acetyl-methyl-amino)-pyrrolidin-1-yl]-4-(4-fluoro-2-methyl-phenyl)-pyridin-3-yl]-2-(3,5-bis-trifluoromethyl-phenyl)-N-methyl-isobutyramide] | 11.7 | 2.34 |
| CCN(C(C)=O)[C@H]1CCN(c2cc(-c3ccc(F)cc3C)c(N(C)C(=O)C(C)(C)c3cc(C(F)(F)F)cc(C(F)(F)F)c3)cn2)C1 [Example 108, (S)-N-[6-[3-(Acetyl-ethyl-amino)-pyrrolidin-1-yl]-4-(4-fluoro-2-methyl-phenyl)-pyridin-3-yl]-2-(3,5-bis-trifluoromethyl-phenyl)-N-methyl-isobutyramide] | 8.91 | 2.45 |
| Cc1cc(F)ccc1-c1cc(N2CCC(=O)C2)ncc1N(C)C(=O)C(C)(C)c1cc(C(F)(F)F)cc(C(F)(F)F)c1 [Example 111, 2-(3,5-Bis-trifluoromethyl-phenyl)-N-[4-(4-fluoro-2-methyl-phenyl)-6-(3-oxo-pyrrolidin-1-yl)-pyridin-3-yl]-N-methyl-isobutyramide] | 4.07 | 2.09 |
| CN(CCO)c1cc(-c2ccc(F)cc2)c(N(C)C(=O)C(C)(C)c2cc(C(F)(F)F)cc(C(F)(F)F)c2)cn1 [Example 115, 2-(3,5-bis-trifluoromethyl-phenyl)-N-{4-(4-fluoro-phenyl)-6-[(2-hydroxy-ethyl)-methyl-amino]-pyridin-3-yl}-N-methyl-isobutyramide] | 30.2 | 1.86 |
| CCN(CCO)c1cc(-c2ccc(F)cc2)c(N(C)C(=O)C(C)(C)c2cc(C(F)(F)F)cc(C(F)(F)F)c2)cn1 [Example 116, 2-(3,5-Bis-trifluoromethyl-phenyl)-N-[6-[ethyl-(2-hydroxy-ethyl)-amino]-4-(4-fluoro-phenyl)-pyridin-3-yl]-N-methyl-isobutyramide] | 32.4 | 3.89 |
| Cc1ccccc1-c1cc(N(C)CCO)ncc1N(C)C(=O)C(C)(C)c1cc(C(F)(F)F)cc(C(F)(F)F)c1 [Example 117, 2-(3,5-Bis-trifluoromethyl-phenyl)-N-{6-[(2-hydroxy-ethyl)-methyl-amino]-4-o-tolyl-pyridin-3-yl}-N-methyl-isobutyramide] | 3.09 | 2.09 |
| CCN(CCO)c1cc(-c2ccccc2C)c(N(C)C(=O)C(C)(C)c2cc(C(F)(F)F)cc(C(F)(F)F)c2)cn1 [Example 118, 2-(3,5-Bis-trifluoromethyl-phenyl)-N-{6-[ethyl-(2-hydroxy-ethyl)-amino]-4-o-tolyl-pyridin-3-yl}-N-methyl-isobutyramide] | 4.57 | 3.63 |
| CCCN(CCO)c1cc(-c2ccccc2C)c(N(C)C(=O)C(C)(C)c2cc(C(F)(F)F)cc(C(F)(F)F)c2)cn1 [Example 119, 2-(3,5-Bis-trifluoromethyl-phenyl)-N-{6-[(2-hydroxy-ethyl)-propyl-amino]-4-o-tolyl-pyridin-3-yl}-N-methyl-isobutyramide] | 2.29 | 3.98 |
